The subject of series [1] is blood mononucleated cells from healthy donor inoculated with MS virion fraction. Format: cell-based, human.
The test system of series [2] is blood mononucleated cells from healthy donor.

`Cc1cn([C@H]2C[C@H](N=[N+]=[N-])[C@@H](CO)O2)c(=O)[nH]c1=O` [AZT, azidodeoxythymidine]: the “Vβ16 expansion of the lymphocytes (FACS analysis of T subpopulations)” value in series [1] is reported as “an absence or an inhibition of Vβ16 expansion”. Also, the “cell mortality (toxicity tests, compound alone)” value in series [2] is on record as “no significant cell mortality”.
`O=c1[nH]cnc2c1ncn2[C@H]1CC[C@@H](CO)O1` [DDI, dideoxyinosine]: the “Vβ16 expansion of the lymphocytes (FACS analysis of T subpopulations)” value in series [1] is “an absence of Vβ16 expansion”.
